In US20210369853A1, “TARGETED PROTEASE DEGRADATION PLATFORM” (EUBULUS BIOTHERAPEUTICS INC., priority 2018, published 2021):
Like-named read-outs stand apart in the source and are kept apart here.

Experiments:
Type in all cases: cell-based
[1] = system: Human Colon Cancer HCT-116; assay: Cell proliferation experiment (Alarm blue, 72 h, EC50); details: HCT116 cells
Procedure, shortened: (§1)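 Single-cell suspensions from log-phase cultures are plated, compound in complete medium is added at 5-fold dilution steps (two replicates each), and cells grow for 72 h. Viability is then measured as Alamar blue fluorescence, giving EC50 by sigmoidal fitting.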

[2] = system: Human Small Cell Lung Cancer NCI-H82; assay: as above; details: Homo sapiens, NCI-H82; NCIH82 cells
Procedure, shortened: as §1

[3] = system: Human Monocytic Leukemia MV4-11; assay: as above; details: Homo sapiens, MV4-11, MV4;11 cells
Procedure, shortened: as §1

Human Colon Cancer HT-29 = assay: as above; details: HT-29 cells
Procedure, shortened: as §1

BRD4 = biological target: T1, BRD4 (Homo sapiens, UniProt O60885); assay: Western blot, protein degradation (DC50)
T1 construct: endogenous in cells
Protocol: (§2) Cells were treated with the compound for a period of time, after that the cells were collected by centrifugation. After washing with PBS, the cells were lysed by adding RIPA buffer; the cell lysate were added to the loading buffer and then appropriate volume were taken and slowly added to the corresponding wells of the gel plate, and run the SDS-PAGE gel (4%-12%). After running the gel, transferred to the PVDF membrane and sealed with 5% skimmed milk powder at room temperature for 1 hour. The membrane was placed in the primary antibody diluted with 5% skimmed milk powder and shaked slowly overnight at 4° C. After incubation with primary antibody, the membrane was washed 3 times using a TBST shaker; added secondary antibody diluted with 5% skimmed milk powder corresponding to the primary antibody, and shaked slowly at room temperature for 1 hour. After incubation with secondary antibody, the membrane was washed 3 times using the TBST shaker again. The PVDF membrane was flatted in the cassette, the strip was evenly infiltrated with ECL developer solution, and placed in ChemDoc XRS+ gel imager for taking pictures. The intensity of protein bands was analyzed quantitatively using ImageJ software.

PLK1 = biological target: T2, PLK1 (Homo sapiens, UniProt P53350); assay: Western blot, protein degradation (DC50)
T2 construct: endogenous in cells
Protocol: as §2

[4] = system: Human Acute Myelomonocytic Leukemia HL-60; assay: Cell proliferation experiment (Alarm blue, 72 h, EC50); details: HL-60 cells
Procedure, shortened: as §1

[5] = system: Human cervical adenocarcinoma cells Hela; assay: as above
Procedure, shortened: as §1

[6] = system: Human Breast Cancer MDA-MB-231; assay: as above; details: MDA-MB-231 cells
Procedure, shortened: as §1

T2 sequence (P53350 whole entry): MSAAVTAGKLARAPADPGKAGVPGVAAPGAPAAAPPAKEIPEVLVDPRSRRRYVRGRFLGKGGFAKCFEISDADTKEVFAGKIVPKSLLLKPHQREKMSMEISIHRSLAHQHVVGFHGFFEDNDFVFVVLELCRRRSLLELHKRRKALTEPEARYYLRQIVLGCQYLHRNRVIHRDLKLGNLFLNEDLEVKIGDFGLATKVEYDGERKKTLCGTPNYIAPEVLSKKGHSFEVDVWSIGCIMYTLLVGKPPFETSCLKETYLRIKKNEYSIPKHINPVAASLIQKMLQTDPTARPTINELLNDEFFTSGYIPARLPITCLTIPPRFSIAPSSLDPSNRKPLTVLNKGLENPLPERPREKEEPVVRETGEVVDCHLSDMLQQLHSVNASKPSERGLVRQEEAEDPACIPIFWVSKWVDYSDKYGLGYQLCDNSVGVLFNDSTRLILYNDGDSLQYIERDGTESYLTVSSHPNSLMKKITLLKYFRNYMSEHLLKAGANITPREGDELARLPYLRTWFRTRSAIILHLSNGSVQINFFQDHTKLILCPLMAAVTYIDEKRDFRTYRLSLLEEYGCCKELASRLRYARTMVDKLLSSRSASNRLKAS

EC50 ([1]; Homo sapiens, HCT-116) [nM] | EC50 [2] [nM] | EC50 [3] [nM] | Compound | other results
> 1000 | > 1000 | 10 to 100 | CC[C@@H]1C(=O)N(C)c2cnc(Nc3ccc(C(=O)NCCCNCCCC(=O)Nc4cccc5c4CN(C4CCC(=O)NC4=O)C5=O)cc3OC)nc2N1Cc1ccc(Br)cc1 (some centres unmarked) [UB-180637] | –
> 1000 | > 1000 | 10 to 100 | CC[C@@H]1C(=O)N(C)c2cnc(Nc3ccc(C(=O)NCCCNCCCCC(=O)Nc4cccc5c4CN(C4CCC(=O)NC4=O)C5=O)cc3OC)nc2N1Cc1ccc(Br)cc1 (some centres unmarked) [UB-180638] | –
> 1000 | > 1000 | 10 to 100 | CC[C@@H]1C(=O)N(C)c2cnc(Nc3ccc(C(=O)NCCCNCCCCCC(=O)Nc4cccc5c4CN(C4CCC(=O)NC4=O)C5=O)cc3OC)nc2N1Cc1ccc(Br)cc1 (some centres unmarked) [UB-180639] | –
100 to 1000 | > 1000 | 10 to 100 | CC[C@@H]1C(=O)N(C)c2cnc(Nc3ccc(C(=O)NCCOCCNCCCCCC(=O)Nc4cccc5c4CN(C4CCC(=O)NC4=O)C5=O)cc3OC)nc2N1Cc1ccc(Br)cc1 (some centres unmarked) [UB-180643] | –
> 1000 | > 1000 | 10 to 100 | CC[C@@H]1C(=O)N(C)c2cnc(Nc3ccc(C(=O)NCCOCCOCCOCCNCCCCCC(=O)Nc4cccc5c4CN(C4CCC(=O)NC4=O)C5=O)cc3OC)nc2N1Cc1ccc(Br)cc1 (some centres unmarked) [UB-180644] | –
100 to 1000 | > 1000 | 10 to 100 | CC[C@@H]1C(=O)N(C)c2cnc(Nc3ccc(C(=O)NCCOCCNCCCCC(=O)Nc4cccc5c4CN(C4CCC(=O)NC4=O)C5=O)cc3OC)nc2N1Cc1ccc(Br)cc1 (some centres unmarked) [UB-180645] | –

Further lines, the molecule ahead of its results:

Compound | EC50 ([1]; Homo sapiens, HCT-116) [nM] | EC50 [2] [nM] | EC50 [3] [nM] | other results
CC[C@@H]1C(=O)N(C)c2cnc(Nc3ccc(C(=O)NCc4cn(CCNCC(=O)Nc5cccc6c5CN(C5CCC(=O)NC5=O)C6=O)nn4)cc3OC)nc2N1C1CCCC1 (some centres unmarked) [UB-180691] | – | – | 10 to 100 | EC50 (Human Colon Cancer HT-29; Homo sapiens): 100 to 1000 nM
CC[C@@H]1C(=O)N(C)c2cnc(Nc3ccc(C(=O)NCc4cn(CCOCCNCCC(=O)Nc5cccc6c5CN(C5CCC(=O)NC5=O)C6=O)nn4)cc3OC)nc2N1C1CCCC1 (some centres unmarked) [UB-180707] | – | – | 10 to 100 | EC50 (Human Colon Cancer HT-29; Homo sapiens): 100 to 1000 nM
CC[C@@H]1C(=O)N(C)c2cnc(Nc3ccc(C(=O)NCc4cn(CCNCCOCC(=O)Nc5cccc6c5CN(C5CCC(=O)NC5=O)C6=O)nn4)cc3OC)nc2N1C1CCCC1 (some centres unmarked) [UB-180719] | – | – | 10 to 100 | EC50 (Human Colon Cancer HT-29; Homo sapiens): 100 to 1000 nM; DC50 (BRD4; 6 h, read-out: BRD4 DC50 (nM) (6 h)): < 10 nM; DC50 (BRD4; 24 h, read-out: BRD4 DC50 (nM) (24 h)): < 10 nM; DC50 (PLK1; 6 h, read-out: PLK1 DC50 (nM) (6 h)): 10 to 100 nM; DC50 (PLK1; 24 h, read-out: PLK1 DC50 (nM) (24 h)): < 10 nM
O=C1CCC(N2Cc3c(NC(=O)CNCCOCCOCCOCCNC(=O)c4ccc(Nc5ncc6c(n5)-c5ccc(Cl)cc5C(c5c(F)cccc5F)=NC6)cc4)cccc3C2=O)C(=O)N1 (centres unmarked) [UB-180727] | – | – | 100 to 1000 | EC50 [4]: > 1000 nM
O=C1CCC(N2Cc3c(NC(=O)CNCCOCCOCCOCCOCCNC(=O)c4ccc(Nc5ncc6c(n5)-c5ccc(Cl)cc5C(c5c(F)cccc5F)=NC6)cc4)cccc3C2=O)C(=O)N1 (centres unmarked) [UB-180801] | – | – | 100 to 1000 | EC50 [4]: > 1000 nM
O=C1CCC(N2Cc3c(NC(=O)CNCCOCCOCCOCCOCCNC(=O)[C@]4(Cc5cccc(Nc6nccs6)n5)CC[C@@H](Oc5cccc(Cl)c5F)CC4)cccc3C2=O)C(=O)N1 (some centres unmarked) [UB-180802] | 100 to 1000 | – | 100 to 1000 | EC50 [4]: > 1000 nM; DC50 (PLK1; 6 h, read-out: PLK1 DC50 (6 h)): < 10 nM
CC[C@@H]1C(=O)N(C)c2cnc(Nc3ccc(C(=O)NC4CCN(CCOCCN(CC(=O)Nc5cccc6c5CN(C5CCC(=O)NC5=O)C6=O)C(=O)OC(C)C(C)SSC[C@@H](NC(=O)[C@@H](CC(=O)O)NC(=O)[C@@H](CC(=O)O)NC(=O)[C@@H](CCCNC(=N)N)NC(=O)[C@@H](CC(=O)O)NC(=O)CC[C@H](NC(=O)c5ccc(NCc6cnc7nc(N)[nH]c(=O)c7n6)cc5)C(=O)O)C(=O)O)CC4)cc3OC)nc2N1C1CCCC1 (some centres unmarked) [UB-180838] | – | – | – | EC50 [1]: 100 to 1000 nM; EC50 [5]: 100 to 1000 nM; EC50 (Human Colon Cancer HT-29): 100 to 1000 nM; EC50 [6]: 100 to 1000 nM
CC(OC(=O)N(CCOCCOCCOCCNC(=O)[C@]1(Cc2cccc(Nc3nccs3)n2)CC[C@@H](Oc2cccc(Cl)c2F)CC1)CC(=O)Nc1cccc2c1CN(C1CCC(=O)NC1=O)C2=O)C(C)SSC[C@H](NC(=O)[C@@H](CC(=O)O)NC(=O)[C@@H](CC(=O)O)NC(=O)[C@@H](CCCNC(=N)N)NC(=O)[C@@H](CC(=O)O)NC(=O)CC[C@H](NC(=O)c1ccc(NCc2cnc3nc(N)[nH]c(=O)c3n2)cc1)C(=O)O)C(=O)O (some centres unmarked) [UB-180839] | – | – | – | EC50 [1]: 100 to 1000 nM; EC50 [5]: 100 to 1000 nM; EC50 (Human Colon Cancer HT-29): 100 to 1000 nM; EC50 [6]: 100 to 1000 nM
